Data reported in PubChem BioAssay (NCI).
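Following 48 hours of exposure in 96-well plates, responses at five concentrations were used to interpolate endpoints linearly. TGI: total growth inhibition.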

Legend:
Assay in all cases: NCI-60 cell line screen, 48 h
HT29 colon = test system: HT29 colon
K-562 leukemia = test system: K-562 leukemia
CCRF-CEM leukemia = test system: CCRF-CEM leukemia
SK-OV-3 ovarian = test system: SK-OV-3 ovarian
OVCAR-8 ovarian = test system: OVCAR-8 ovarian
ACHN renal = test system: ACHN renal
HS 578T breast = test system: HS 578T breast
SK-MEL-28 melanoma = test system: SK-MEL-28 melanoma
OVCAR-3 ovarian = test system: OVCAR-3 ovarian
MDA-N = test system: MDA-N
786-0 renal = test system: 786-0 renal
MCF7 breast = test system: MCF7 breast
MALME-3M melanoma = test system: MALME-3M melanoma
PC-3 prostate = test system: PC-3 prostate
SF-539 CNS = test system: SF-539 CNS
HL-60(TB) leukemia = test system: HL-60(TB) leukemia
DU-145 prostate = test system: DU-145 prostate
OVCAR-5 ovarian = test system: OVCAR-5 ovarian
T-47D breast = test system: T-47D breast
HCC-2998 colon = test system: HCC-2998 colon
MDA-MB-231 breast = test system: MDA-MB-231 breast
A549 NSCLC = test system: A549 NSCLC
EKVX NSCLC = test system: EKVX NSCLC
SR leukemia = test system: SR leukemia
U251 CNS = test system: U251 CNS
RXF 393 renal = test system: RXF 393 renal
OVCAR-4 ovarian = test system: OVCAR-4 ovarian
MOLT-4 leukemia = test system: MOLT-4 leukemia
IGROV1 ovarian = test system: IGROV1 ovarian
KM12 colon = test system: KM12 colon
UACC-62 melanoma = test system: UACC-62 melanoma
SNB-75 CNS = test system: SNB-75 CNS
SF-295 CNS = test system: SF-295 CNS
SW-620 colon = test system: SW-620 colon
SK-MEL-5 melanoma = test system: SK-MEL-5 melanoma
SN12C renal = test system: SN12C renal
HCT-15 colon = test system: HCT-15 colon
COLO 205 colon = test system: COLO 205 colon
NCI-H226 lung = test system: NCI-H226 lung
HCT-116 colon = test system: HCT-116 colon
SF-268 CNS = test system: SF-268 CNS
A498 renal = test system: A498 renal
SNB-19 CNS = test system: SNB-19 CNS
UO-31 renal = test system: UO-31 renal
NCI/ADR-RES ovarian = test system: NCI/ADR-RES ovarian
NCI-H23 lung = test system: NCI-H23 lung
CAKI-1 renal = test system: CAKI-1 renal
NCI-H460 lung = test system: NCI-H460 lung
HOP-62 NSCLC = test system: HOP-62 NSCLC
NCI-H522 lung = test system: NCI-H522 lung
M14 melanoma = test system: M14 melanoma
SK-MEL-2 melanoma = test system: SK-MEL-2 melanoma
TK-10 renal = test system: TK-10 renal
UACC-257 melanoma = test system: UACC-257 melanoma
BT-549 breast = test system: BT-549 breast
LOX IMVI melanoma = test system: LOX IMVI melanoma
HOP-92 NSCLC = test system: HOP-92 NSCLC
MDA-MB-435 = test system: MDA-MB-435
RPMI-8226 leukemia = test system: RPMI-8226 leukemia

## O=c1[nH]cnc2cccc(Cl)c12
HT29 colon
  TGI: > 100 µM
K-562 leukemia
  TGI: > 100 µM
CCRF-CEM leukemia
  TGI: > 100 µM
SK-OV-3 ovarian
  TGI: > 100 µM
OVCAR-8 ovarian
  TGI: > 100 µM
ACHN renal
  TGI: > 100 µM
HS 578T breast
  TGI: > 100 µM
SK-MEL-28 melanoma
  TGI: > 100 µM
OVCAR-3 ovarian
  TGI: > 100 µM
MDA-N
  TGI: > 100 µM
786-0 renal
  TGI: > 100 µM
MCF7 breast
  TGI: > 100 µM
MALME-3M melanoma
  TGI: > 100 µM
PC-3 prostate
  TGI: > 100 µM
SF-539 CNS
  TGI: > 100 µM
HL-60(TB) leukemia
  TGI: > 100 µM
DU-145 prostate
  TGI: > 100 µM
OVCAR-5 ovarian
  TGI: > 100 µM
T-47D breast
  TGI: > 100 µM
HCC-2998 colon
  TGI: > 100 µM
MDA-MB-231 breast
  TGI: > 100 µM
A549 NSCLC
  TGI: > 100 µM
EKVX NSCLC
  TGI: > 100 µM
SR leukemia
  TGI: > 100 µM
U251 CNS
  TGI: > 100 µM
RXF 393 renal
  TGI: > 100 µM
OVCAR-4 ovarian
  TGI: > 100 µM
MOLT-4 leukemia
  TGI: > 100 µM
IGROV1 ovarian
  TGI: > 100 µM
KM12 colon
  TGI: > 100 µM
UACC-62 melanoma
  TGI: > 100 µM
SNB-75 CNS
  TGI: > 100 µM
SF-295 CNS
  TGI: > 100 µM
SW-620 colon
  TGI: > 100 µM
SK-MEL-5 melanoma
  TGI: > 100 µM
SN12C renal
  TGI: > 100 µM
HCT-15 colon
  TGI: > 100 µM
COLO 205 colon
  TGI: > 100 µM
NCI-H226 lung
  TGI: > 100 µM
HCT-116 colon
  TGI: > 100 µM
SF-268 CNS
  TGI: > 100 µM
A498 renal
  TGI: > 100 µM
SNB-19 CNS
  TGI: > 100 µM
UO-31 renal
  TGI: > 100 µM
NCI/ADR-RES ovarian
  TGI: > 100 µM
NCI-H23 lung
  TGI: > 100 µM
CAKI-1 renal
  TGI: > 100 µM
NCI-H460 lung
  TGI: > 100 µM
HOP-62 NSCLC
  TGI: > 100 µM
NCI-H522 lung
  TGI: > 100 µM
M14 melanoma
  TGI: > 100 µM
SK-MEL-2 melanoma
  TGI: > 100 µM
TK-10 renal
  TGI: > 100 µM
UACC-257 melanoma
  TGI: > 100 µM
BT-549 breast
  TGI: > 100 µM

## CNC(=O)Oc1ccc(-c2cn3cc(OC(=O)NC)ccc3n2)cc1
HT29 colon
  TGI: > 100 µM
K-562 leukemia
  TGI: > 100 µM
LOX IMVI melanoma
  TGI: > 100 µM
CCRF-CEM leukemia
  TGI: 52.9 µM
SK-OV-3 ovarian
  TGI: > 100 µM
OVCAR-8 ovarian
  TGI: > 100 µM
ACHN renal
  TGI: > 100 µM
SK-MEL-28 melanoma
  TGI: > 100 µM
OVCAR-3 ovarian
  TGI: > 100 µM
MDA-N
  TGI: > 100 µM
786-0 renal
  TGI: > 100 µM
MCF7 breast
  TGI: > 100 µM
PC-3 prostate
  TGI: > 100 µM
SF-539 CNS
  TGI: > 100 µM
DU-145 prostate
  TGI: > 100 µM
OVCAR-5 ovarian
  TGI: > 100 µM
T-47D breast
  TGI: > 100 µM
HCC-2998 colon
  TGI: > 100 µM
MDA-MB-231 breast
  TGI: > 100 µM
A549 NSCLC
  TGI: > 100 µM
EKVX NSCLC
  TGI: > 100 µM
SR leukemia
  TGI: > 100 µM
U251 CNS
  TGI: > 100 µM
RXF 393 renal
  TGI: > 100 µM
OVCAR-4 ovarian
  TGI: > 100 µM
MOLT-4 leukemia
  TGI: > 100 µM
IGROV1 ovarian
  TGI: > 100 µM
KM12 colon
  TGI: > 100 µM
HOP-92 NSCLC
  TGI: > 100 µM
UACC-62 melanoma
  TGI: > 100 µM
SNB-75 CNS
  TGI: > 100 µM
SF-295 CNS
  TGI: > 100 µM
SW-620 colon
  TGI: > 100 µM
SK-MEL-5 melanoma
  TGI: > 100 µM
SN12C renal
  TGI: > 100 µM
MDA-MB-435
  TGI: > 100 µM
HCT-15 colon
  TGI: > 100 µM
COLO 205 colon
  TGI: > 100 µM
NCI-H226 lung
  TGI: > 100 µM
HCT-116 colon
  TGI: > 100 µM
SF-268 CNS
  TGI: 75 µM
A498 renal
  TGI: > 100 µM
SNB-19 CNS
  TGI: > 100 µM
UO-31 renal
  TGI: > 100 µM
NCI/ADR-RES ovarian
  TGI: > 100 µM
NCI-H23 lung
  TGI: > 100 µM
CAKI-1 renal
  TGI: > 100 µM
RPMI-8226 leukemia
  TGI: 81.9 µM
NCI-H460 lung
  TGI: > 100 µM
HOP-62 NSCLC
  TGI: > 100 µM
M14 melanoma
  TGI: > 100 µM
SK-MEL-2 melanoma
  TGI: > 100 µM
TK-10 renal
  TGI: > 100 µM
UACC-257 melanoma
  TGI: > 100 µM
BT-549 breast
  TGI: > 100 µM

## CCOc1ccc(-c2nc(-c3oc4ccccc4c(=O)c3OC(C)=O)cs2)cc1
HT29 colon
  TGI: > 10 µM
K-562 leukemia
  TGI: > 10 µM
LOX IMVI melanoma
  TGI: > 10 µM
CCRF-CEM leukemia
  TGI: > 10 µM
SK-OV-3 ovarian
  TGI: > 10 µM
OVCAR-8 ovarian
  TGI: > 10 µM
SK-MEL-28 melanoma
  TGI: > 10 µM
MDA-N
  TGI: > 10 µM
786-0 renal
  TGI: > 10 µM
MCF7 breast
  TGI: > 10 µM
MALME-3M melanoma
  TGI: > 10 µM
PC-3 prostate
  TGI: > 10 µM
HL-60(TB) leukemia
  TGI: > 10 µM
DU-145 prostate
  TGI: > 10 µM
T-47D breast
  TGI: > 10 µM
HCC-2998 colon
  TGI: > 10 µM
MDA-MB-231 breast
  TGI: > 10 µM
A549 NSCLC
  TGI: > 10 µM
EKVX NSCLC
  TGI: > 10 µM
SR leukemia
  TGI: > 10 µM
RXF 393 renal
  TGI: 7.21 µM
MOLT-4 leukemia
  TGI: > 10 µM
IGROV1 ovarian
  TGI: > 10 µM
KM12 colon
  TGI: > 10 µM
UACC-62 melanoma
  TGI: > 10 µM
SNB-75 CNS
  TGI: > 10 µM
SF-295 CNS
  TGI: > 10 µM
SW-620 colon
  TGI: > 10 µM
SK-MEL-5 melanoma
  TGI: > 10 µM
SN12C renal
  TGI: > 10 µM
HCT-15 colon
  TGI: > 10 µM
COLO 205 colon
  TGI: > 10 µM
SF-268 CNS
  TGI: > 10 µM
NCI-H23 lung
  TGI: > 10 µM
CAKI-1 renal
  TGI: > 10 µM
RPMI-8226 leukemia
  TGI: > 10 µM
HOP-62 NSCLC
  TGI: > 10 µM
M14 melanoma
  TGI: > 10 µM
TK-10 renal
  TGI: > 10 µM
UACC-257 melanoma
  TGI: > 10 µM

## NCCSc1nc2ccccc2c(=O)n1-c1ccccc1
HT29 colon
  TGI: > 100 µM
K-562 leukemia
  TGI: > 100 µM
LOX IMVI melanoma
  TGI: > 100 µM
CCRF-CEM leukemia
  TGI: > 100 µM
SK-OV-3 ovarian
  TGI: > 100 µM
OVCAR-8 ovarian
  TGI: > 100 µM
ACHN renal
  TGI: > 100 µM
SK-MEL-28 melanoma
  TGI: > 100 µM
OVCAR-3 ovarian
  TGI: > 100 µM
MDA-N
  TGI: > 100 µM
786-0 renal
  TGI: > 100 µM
MCF7 breast
  TGI: > 100 µM
MALME-3M melanoma
  TGI: > 100 µM
PC-3 prostate
  TGI: > 100 µM
SF-539 CNS
  TGI: > 100 µM
HL-60(TB) leukemia
  TGI: 90.7 µM
OVCAR-5 ovarian
  TGI: > 100 µM
T-47D breast
  TGI: > 100 µM
HCC-2998 colon
  TGI: > 100 µM
MDA-MB-231 breast
  TGI: > 100 µM
A549 NSCLC
  TGI: > 100 µM
EKVX NSCLC
  TGI: > 100 µM
SR leukemia
  TGI: > 100 µM
U251 CNS
  TGI: > 100 µM
OVCAR-4 ovarian
  TGI: > 100 µM
IGROV1 ovarian
  TGI: > 100 µM
KM12 colon
  TGI: > 100 µM
HOP-92 NSCLC
  TGI: 65.5 µM
UACC-62 melanoma
  TGI: > 100 µM
SNB-75 CNS
  TGI: > 100 µM
SF-295 CNS
  TGI: > 100 µM
SW-620 colon
  TGI: > 100 µM
SK-MEL-5 melanoma
  TGI: > 100 µM
SN12C renal
  TGI: > 100 µM
MDA-MB-435
  TGI: > 100 µM
HCT-15 colon
  TGI: > 100 µM
COLO 205 colon
  TGI: > 100 µM
NCI-H226 lung
  TGI: > 100 µM
HCT-116 colon
  TGI: > 100 µM
A498 renal
  TGI: > 100 µM
SNB-19 CNS
  TGI: 57.1 µM
UO-31 renal
  TGI: > 100 µM
NCI/ADR-RES ovarian
  TGI: > 100 µM
NCI-H23 lung
  TGI: > 100 µM
CAKI-1 renal
  TGI: > 100 µM
HOP-62 NSCLC
  TGI: > 100 µM
NCI-H522 lung
  TGI: > 100 µM
M14 melanoma
  TGI: > 100 µM
SK-MEL-2 melanoma
  TGI: > 100 µM
TK-10 renal
  TGI: > 100 µM
UACC-257 melanoma
  TGI: > 100 µM
BT-549 breast
  TGI: > 100 µM
